Measured values published in PubChem BioAssay AID1963825 (Molecular Pharmacology Branch, DTP, NCI, 2024).

Test: Anticancer human tumor 997537-175-T-J1-PDC patient-derived colon adenocarcinoma cell line growth inhibition [POLQ]
Settings: 997537-175-T-J1-PDC complex spheroid viability, combination with POLQ inhibitors; for IC50: curve of first compound; for viability, T/C: stronger effect = lower value; active = viability on the fitted dose curve at most 10% of control; inactive = the rest
Description: Multicellular complex tumor spheroid response to Polymerase (POL) inhibitors (novobiocin, ART-558, RP6685) in combination with a variety of drugs and investigational agents in selected tumor cell lines
The POL inhibitors (novobiocin, ART-558, and RP6685) were evaluated both individually and in combination with standard of care and investigational anticancer small molecules within a complex spheroid model of solid tumors. . Complex spheroids include a stromal component modeled by human endothelial cells (HUVEC) and fibroblasts modeled by human mesenchymal stem cells (MSCs). The concentration ranges selected for each drug and investigational agent were based upon clinically achievable concentrations if the clinical Cmax of the agent was known.
Compounds. The drugs and investigational agents: novobiocin (NSC847541), ART-558 (NSC835418), RP-6685 (NSC848927), peposertib (NSC802822), ceralasertib (NSC780249), elimusertib (NSC800525), camonsertib (NSC841442), AZD-1390 (NSC803789), olaparib (NSC753686), talazoparib (NSC767125), rucaparib (NSC756644), sotorasib (NSC818433), MRTX-1133 (NSC836407), SN-38 (NSC673596), topotecan (NSC609699), epotoside (NSC141540), doxorubicin (NSC123127), gemcitabine (NSC613327), 5-fluorouracil (NSC19893), paclitaxel (NSC125973), vemurafenib (NSC761431), MSA-2 (NSC828583), SN-011 (NSC837082), adavosertib (NSC754352), prexasertib (NSC758257), carboplatin (NSC241240) and oxaliplatin (NSC266046), were obtained from the National Cancer Institute (NCI) Developmental Therapeutics Program Chemical Repository (21). The FDA-approved anticancer drug set is available from the Developmental Therapeutics Program at https://dtp.cancer.gov/organization/dscb/obtaining/. […] The stock solutions were prepared in dimethyl sulfoxide (DMSO, Sigma-Aldrich, St. Louis, MO, cat. D2650), except for the platinum compounds which were prepared in saline (Quality Biological, Gaithersburg, MD, cat. 114-055-101), at 800-fold the tested concentration and stored at -70 degrees C prior to their use. All drugs and investigational agents were tested over a range starting from a high concentration at or near the clinical Cmax and decreasing in half-log increments. If the clinical Cmax for an agent had not been determined, the highest concentration tested was 10 microM, except for SN-38, which was tested at a high concentration of 1 microM.
Cell Culture. All cells were maintained in an incubator at 37 degrees C and 5% CO2 with 95% humidity. The PDC lines were cultured according to standard operating procedures established by the NCI PDMR (https://pdmr.cancer.gov). Table 3 of the manuscript, lists the cell lines along with the number of the three cell types plated to form the mct-spheroids and media for tumor cell growth. After thawing, all PDC lines, except 997537-175-T-J1-PDC and 415267-285-R-J2-PDC, were cultured in Matrigel-coated flasks prepared with a working solution of 1X Ham's F-12 nutrient mix, without supplementation (Thermo Fisher Scientific, cat. 11765054), 100 U/mL penicillin-streptomycin (Thermo Fisher Scientific, cat. 15140122), and 2.5% Matrigel (Corning Inc., Corning, NY, cat. 354248) for the first three passages. The two PDC lines 997537-175-T-J1-PDC and 415267-285-R-J2-PDC were cultured on uncoated flasks. The 857933-349-R-J2-PDC line was cultured in 6C/Colon 1B media containing advanced DMEM/F-12 (Thermo Fisher Scientific, cat. 12634028), 10 mM HEPES (Thermo Fisher Scientific, cat. 15630080), 1X GlutaMAX supplement (Thermo Fisher Scientific, cat. 35050061), 0.1 mg/mL primocin (InvivoGen, San Diego, CA, cat. ant-pm-2), 10% defined fetal bovine serum, heat inactivated (HyClone Laboratories Inc., Logan, UT, cat. SH30070.03HI), 50% L-WRN conditioned media (ATCC, cat. CRL-3276), 1.25 mM N-Acetyl-L-cysteine (Sigma-Aldrich, cat. A9165), 10 mM nicotinamide (Sigma-Aldrich, cat. N0636), 1X B-27 supplement (Thermo Fisher Scientific, cat. 17504044), 1X N-2 supplement (Thermo Fisher Scientific, cat. […]

[1] = second compound 0.0316 µM, first compound 0.0316 µM
[2] = second compound 0.0316 µM, first compound 0.1 µM
[3] = second compound 0.0316 µM, first compound 0.316 µM
[4] = second compound 0.0316 µM, first compound 1 µM
[5] = second compound 0.0316 µM, first compound 3.16 µM
[6] = second compound 0.0316 µM, first compound 10 µM
[7] = second compound 0.1 µM, first compound 0.0316 µM
[8] = second compound 0.1 µM, first compound 0.1 µM
[9] = second compound 0.1 µM, first compound 0.316 µM
[10] = second compound 0.1 µM, first compound 1 µM
[11] = second compound 0.1 µM, first compound 3.16 µM
[12] = second compound 0.1 µM, first compound 10 µM
[13] = second compound 0.316 µM, first compound 0.0316 µM
[14] = second compound 0.316 µM, first compound 0.1 µM
[15] = second compound 0.316 µM, first compound 0.316 µM
[16] = second compound 0.316 µM, first compound 1 µM
[17] = second compound 0.316 µM, first compound 3.16 µM
[18] = second compound 0.316 µM, first compound 10 µM
[19] = second compound 1 µM, first compound 0.0316 µM
[20] = second compound 1 µM, first compound 0.1 µM
[21] = second compound 1 µM, first compound 0.316 µM
[22] = second compound 1 µM, first compound 1 µM
[23] = second compound 1 µM, first compound 3.16 µM
[24] = second compound 1 µM, first compound 10 µM
[25] = second compound 3.16 µM, first compound 0.0316 µM
[26] = second compound 3.16 µM, first compound 0.1 µM
[27] = second compound 3.16 µM, first compound 0.316 µM
[28] = second compound 3.16 µM, first compound 1 µM
[29] = second compound 3.16 µM, first compound 3.16 µM
[30] = second compound 3.16 µM, first compound 10 µM
[31] = second compound 10 µM, first compound 0.0316 µM
[32] = second compound 10 µM, first compound 0.1 µM
[33] = second compound 10 µM, first compound 0.316 µM
[34] = second compound 10 µM, first compound 1 µM
[35] = second compound 10 µM, first compound 3.16 µM
[36] = second compound 10 µM, first compound 10 µM
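Also: luminescence signal used as a surrogate for viable cells; spheroids exposed to drugs for seven days before readout.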

C#Cc1c(F)ccc2cc(O)cc(-c3ncc4c(N5CC6CCC(C5)N6)nc(OCC56CCCN5CC(F)C6)nc4c3F)c12 (centres undefined) + Cc1cccc(N(C)C(=O)C2C(O)CCN2c2nc(C)cc(C(F)(F)F)c2C#N)c1
> 10 µM: IC50 (second compound 0.0316 µM) | IC50 (second compound 0.1 µM) | IC50 (second compound 0.316 µM) | IC50 (second compound 1 µM) | IC50 (second compound 3.16 µM) | IC50 (second compound 10 µM)
inactive: viability, T/C [1] 95.2% | viability, T/C [2] 106% | viability, T/C [3] 89.2% | viability, T/C [4] 107% | viability, T/C [5] 108% | viability, T/C [6] 109% | viability, T/C [7] 99.2% | viability, T/C [8] 102% | viability, T/C [9] 98.2% | viability, T/C [10] 104% | viability, T/C [11] 104% | viability, T/C [12] 108% | viability, T/C [13] 106% | viability, T/C [14] 106% | viability, T/C [15] 91.6% | viability, T/C [16] 91.7% | viability, T/C [17] 121% | viability, T/C [18] 105% | viability, T/C [19] 109% | viability, T/C [20] 107% | viability, T/C [21] 111% | viability, T/C [22] 100% | viability, T/C [23] 98.5% | viability, T/C [24] 102% | viability, T/C [25] 106% | viability, T/C [26] 83.5% | viability, T/C [27] 101% | viability, T/C [28] 112% | viability, T/C [29] 101% | viability, T/C [30] 104% | viability, T/C [31] 99.8% | viability, T/C [32] 88.6% | viability, T/C [33] 101% | viability, T/C [34] 119% | viability, T/C [35] 94.1% | viability, T/C [36] 89%

O=C(Nc1ccc(O)c(NS(=O)(=O)c2ccc(F)cc2)c1)c1ccc(-c2ccccc2)cc1 + Cc1cccc(N(C)C(=O)C2C(O)CCN2c2nc(C)cc(C(F)(F)F)c2C#N)c1
> 10 µM: IC50 (second compound 0.0316 µM) | IC50 (second compound 0.1 µM) | IC50 (second compound 0.316 µM) | IC50 (second compound 1 µM) | IC50 (second compound 3.16 µM) | IC50 (second compound 10 µM)
inactive: viability, T/C [1] 105% | viability, T/C [2] 105% | viability, T/C [3] 99.4% | viability, T/C [4] 100% | viability, T/C [5] 101% | viability, T/C [6] 72.7% | viability, T/C [7] 107% | viability, T/C [8] 99.4% | viability, T/C [9] 93.9% | viability, T/C [10] 103% | viability, T/C [11] 91% | viability, T/C [12] 98.1% | viability, T/C [13] 105% | viability, T/C [14] 91.9% | viability, T/C [15] 111% | viability, T/C [16] 103% | viability, T/C [17] 97.5% | viability, T/C [18] 92.5% | viability, T/C [19] 93.7% | viability, T/C [20] 84.4% | viability, T/C [21] 94.9% | viability, T/C [22] 87.3% | viability, T/C [23] 111% | viability, T/C [24] 98.6% | viability, T/C [25] 97.2% | viability, T/C [26] 106% | viability, T/C [27] 93% | viability, T/C [28] 80.6% | viability, T/C [29] 106% | viability, T/C [30] 91.7% | viability, T/C [31] 96.8% | viability, T/C [32] 101% | viability, T/C [33] 108% | viability, T/C [34] 93% | viability, T/C [35] 89.5% | viability, T/C [36] 105%
